Test systems include NCI/ADR-RES ovarian; MCF7 breast; HT29 colon; LOX IMVI melanoma; HOP-62 NSCLC; SNB-19 CNS; SR leukemia; OVCAR-5 ovarian; MDA-MB-435; A498 renal.
Assay in all cases: DTP human tumour cell line panel, 48 h

Each structure is given as a SMILES string. “And” between values parts separate entries of the source, which are not always exact repeats. Equal values may be shown once.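 Tested at 5 concentrations; 48 h exposure; 96-well plates; endpoints linearly interpolated, else capped at highest concentration. Here, GI50 denotes the concentration required for 50% inhibition of growth. TGI: total growth inhibition.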

One may read the GI50 as the concentration that inhibits growth by half. As a reminder, the TGI is the concentration at which net growth stops. A lower TGI goes with greater sensitivity of the cells. Turning to `CNCC1CCn2c(c(C3=C(c4cn(C)c5ccccc45)C(=O)NC3=O)c3ccccc32)C1` (stereo not given), the GI50 with NCI/ADR-RES ovarian is 10.2 µM; with MCF7 breast, 1.74 µM; in the experiment with HT29 colon it was 2.79 µM; in the experiment on LOX IMVI melanoma, 3.84 µM; in the experiment with HOP-62 NSCLC it was 3.62 µM; in the experiment on SNB-19 CNS, 4.58 µM. The GI50 is 1.79 µM in the experiment on SR leukemia, 3.07 µM in the experiment with OVCAR-5 ovarian, 2.75 µM with MDA-MB-435 and 5.65 µM in the experiment with A498 renal. In addition, the concentration for total growth inhibition (TGI) is 25 µM in the experiment on NCI/ADR-RES ovarian; 5.17 µM in the experiment with MCF7 breast; 8.18 µM with HT29 colon; 7.4 µM in the experiment on LOX IMVI melanoma; 9.99 µM in the experiment with HOP-62 NSCLC; 16.3 µM with SNB-19 CNS. In addition, the concentration for total growth inhibition (TGI) worked out at 8.78 µM with SR leukemia, 20.9 µM in the experiment on OVCAR-5 ovarian, 5.94 µM in the experiment with MDA-MB-435 and 14.5 µM in the experiment on A498 renal.
As to `C=C1C(OCCO)OC2O[C@]3(C)CCC4[C@H](C)CCC1C24OO3` (stereo not given in full), the GI50 in the experiment on NCI/ADR-RES ovarian is 36 µM; in the experiment on MCF7 breast, 17.4 µM; in the experiment with HT29 colon, 7.54 µM; in the experiment on LOX IMVI melanoma, 4.15 µM; in the experiment with HOP-62 NSCLC it was 52.7 µM; with SNB-19 CNS, greater than 100 µM. For the same molecule, the GI50 was 2.36 µM with SR leukemia, 19.6 µM in the experiment with OVCAR-5 ovarian, 12.9 µM in the experiment with MDA-MB-435 and greater than 100 µM with A498 renal. The total growth inhibition concentration (TGI) in the experiment with NCI/ADR-RES ovarian was greater than 100 µM; in the experiment on MCF7 breast, greater than 100 µM; in the experiment with HT29 colon, greater than 100 µM; in the experiment on LOX IMVI melanoma, 19.2 µM; in the experiment on HOP-62 NSCLC, greater than 100 µM; with SNB-19 CNS it was greater than 100 µM. The TGI in the experiment with SR leukemia is 26.2 µM; with OVCAR-5 ovarian, greater than 100 µM; in the experiment on MDA-MB-435, 83.6 µM; in the experiment with A498 renal, greater than 100 µM.
As to `CCC(=O)Oc1ccc(/C=N/NC(N)=S)nc1`, the GI50 in the experiment with NCI/ADR-RES ovarian is 3.27 µM; in the experiment on MCF7 breast, 1.88 µM; in the experiment with HT29 colon, 19.3 µM; with LOX IMVI melanoma it was 2.91 µM; in the experiment on HOP-62 NSCLC it was 5.53 µM; in the experiment on SNB-19 CNS it was 14.2 µM. Moreover, the GI50 in the experiment with SR leukemia is 1.34 µM; with OVCAR-5 ovarian it was 34 µM; in the experiment with MDA-MB-435 it was 7.86 µM; in the experiment with A498 renal, 23.3 µM. Moreover, the TGI is greater than 100 µM in the experiment on NCI/ADR-RES ovarian; greater than 100 µM in the experiment on MCF7 breast; greater than 100 µM in the experiment on HT29 colon; greater than 100 µM in the experiment with LOX IMVI melanoma; 82.3 µM in the experiment with HOP-62 NSCLC; greater than 100 µM with SNB-19 CNS. The concentration for total growth inhibition (TGI) in the experiment on SR leukemia, in the experiment on OVCAR-5 ovarian, with MDA-MB-435 and with A498 renal was greater than 100 µM in each case.
For `O=C1/C(=C/c2cccc(F)c2)CN(C(=O)C(Cl)Cl)C/C1=C\c1cccc(F)c1`, the GI50 with NCI/ADR-RES ovarian is 0.304 µM; with MCF7 breast it was 0.0405 µM; in the experiment with HT29 colon, 0.113 µM; with LOX IMVI melanoma, 0.0385 µM; with HOP-62 NSCLC it was 0.353 µM; with SNB-19 CNS, 0.204 µM. In addition, the GI50 in the experiment with SR leukemia was 0.0296 µM; in the experiment on OVCAR-5 ovarian it was 0.29 µM; in the experiment with MDA-MB-435, 0.21 µM; in the experiment with A498 renal it was 0.628 µM. The concentration for total growth inhibition (TGI) in the experiment with NCI/ADR-RES ovarian was determined as 1.49 µM; in the experiment on MCF7 breast it was 0.241 µM; in the experiment with HT29 colon, 0.764 µM; with LOX IMVI melanoma, 0.109 µM; with HOP-62 NSCLC, 1.19 µM; in the experiment with SNB-19 CNS, 0.604 µM. For the same molecule, the TGI amounted to 0.465 µM in the experiment on SR leukemia, 0.887 µM with OVCAR-5 ovarian, 0.491 µM in the experiment on MDA-MB-435 and 2.05 µM in the experiment with A498 renal.
As to `CC(C)Cn1cnc2c(SCc3ccccn3)nc(N)nc21`, the concentration for total growth inhibition (TGI) in the experiment on NCI/ADR-RES ovarian, with MCF7 breast, in the experiment on HT29 colon, in the experiment with LOX IMVI melanoma, with HOP-62 NSCLC and in the experiment with SNB-19 CNS was greater than 100 µM in each case. Further, the concentration for total growth inhibition (TGI) with SR leukemia, in the experiment on OVCAR-5 ovarian, in the experiment on MDA-MB-435 and in the experiment with A498 renal was greater than 100 µM each time.
On to `Nc1nc(N)c(-c2ccc(Cl)cc2)c(/C=C/c2ccc([N+](=O)[O-])cc2)n1`, for which the GI50 is 7.99 µM in the experiment with NCI/ADR-RES ovarian; 3.16 µM with MCF7 breast; 4.99 µM in the experiment on HT29 colon; 4.52 µM in the experiment with LOX IMVI melanoma; 11.9 µM with HOP-62 NSCLC; 16.1 µM in the experiment on SNB-19 CNS. In addition, the GI50 in the experiment on SR leukemia was 6.25 µM; in the experiment with OVCAR-5 ovarian, 38.2 µM; in the experiment on MDA-MB-435, 4.44 µM; in the experiment with A498 renal, 1.97 µM. The total growth inhibition concentration (TGI) in the experiment on NCI/ADR-RES ovarian is greater than 100 µM; in the experiment on MCF7 breast, greater than 100 µM; with HT29 colon, greater than 100 µM; in the experiment with LOX IMVI melanoma it was greater than 100 µM; with HOP-62 NSCLC it was 31.1 µM; with SNB-19 CNS, greater than 100 µM. The concentration for total growth inhibition (TGI) in the experiment on SR leukemia was greater than 100 µM; in the experiment on OVCAR-5 ovarian, greater than 100 µM; in the experiment on MDA-MB-435, greater than 100 µM; in the experiment with A498 renal it was 16.5 µM.
For the molecule `CCCC(CCC)C(=O)O`, the GI50 in the experiment with NCI/ADR-RES ovarian is greater than 100 µM; in the experiment with MCF7 breast it was greater than 100 µM; with HT29 colon, greater than 100 µM; in the experiment on LOX IMVI melanoma, greater than 100 µM; in the experiment on HOP-62 NSCLC it was greater than 20000 µM; in the experiment with SNB-19 CNS it was greater than 20000 µM. The GI50 with SR leukemia was greater than 100 µM; in the experiment on OVCAR-5 ovarian, greater than 20000 µM; in the experiment on MDA-MB-435, greater than 100 µM; in the experiment with A498 renal, greater than 100 µM. Also, the TGI is greater than 20000 µM with NCI/ADR-RES ovarian; greater than 20000 µM with MCF7 breast; > 100 µM and 12400 µM in the experiment with HT29 colon; greater than 20000 µM in the experiment with LOX IMVI melanoma; greater than 20000 µM in the experiment with HOP-62 NSCLC; greater than 20000 µM in the experiment on SNB-19 CNS. Also, the TGI in the experiment on SR leukemia is greater than 20000 µM; with OVCAR-5 ovarian it was greater than 20000 µM; with MDA-MB-435 it was greater than 20000 µM; in the experiment with A498 renal, > 100 µM and 4830 µM.

Values taken from PubChem BioAssay (NCI).
